In PubChem BioAssay AID1645866 (Buhrlage Lab, Dana-Farber Cancer Institute and Novartis …, 2021):
The source made the active and inactive calls.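 Rule for the calls: active = in confirmatory dose-response testing, peak deubiquitinase inhibition of 30% or more; inactive = the rest.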

Molecular target: Ubiquitin carboxyl-terminal hydrolase 28 (Homo sapiens) (UniProt Q96RU2)
Test: Ubiquitin-specific peptidase 28 DUB inhibitors, biochemical concentration-dependence assay, validation of primary screening hits (AID 1645866)
Settings: purified USP28, ubiquitin-rhodamine fluorescence, 30 min

Sequence of Ubiquitin carboxyl-terminal hydrolase 28 (Homo sapiens) (Q96RU2 whole entry, looked up): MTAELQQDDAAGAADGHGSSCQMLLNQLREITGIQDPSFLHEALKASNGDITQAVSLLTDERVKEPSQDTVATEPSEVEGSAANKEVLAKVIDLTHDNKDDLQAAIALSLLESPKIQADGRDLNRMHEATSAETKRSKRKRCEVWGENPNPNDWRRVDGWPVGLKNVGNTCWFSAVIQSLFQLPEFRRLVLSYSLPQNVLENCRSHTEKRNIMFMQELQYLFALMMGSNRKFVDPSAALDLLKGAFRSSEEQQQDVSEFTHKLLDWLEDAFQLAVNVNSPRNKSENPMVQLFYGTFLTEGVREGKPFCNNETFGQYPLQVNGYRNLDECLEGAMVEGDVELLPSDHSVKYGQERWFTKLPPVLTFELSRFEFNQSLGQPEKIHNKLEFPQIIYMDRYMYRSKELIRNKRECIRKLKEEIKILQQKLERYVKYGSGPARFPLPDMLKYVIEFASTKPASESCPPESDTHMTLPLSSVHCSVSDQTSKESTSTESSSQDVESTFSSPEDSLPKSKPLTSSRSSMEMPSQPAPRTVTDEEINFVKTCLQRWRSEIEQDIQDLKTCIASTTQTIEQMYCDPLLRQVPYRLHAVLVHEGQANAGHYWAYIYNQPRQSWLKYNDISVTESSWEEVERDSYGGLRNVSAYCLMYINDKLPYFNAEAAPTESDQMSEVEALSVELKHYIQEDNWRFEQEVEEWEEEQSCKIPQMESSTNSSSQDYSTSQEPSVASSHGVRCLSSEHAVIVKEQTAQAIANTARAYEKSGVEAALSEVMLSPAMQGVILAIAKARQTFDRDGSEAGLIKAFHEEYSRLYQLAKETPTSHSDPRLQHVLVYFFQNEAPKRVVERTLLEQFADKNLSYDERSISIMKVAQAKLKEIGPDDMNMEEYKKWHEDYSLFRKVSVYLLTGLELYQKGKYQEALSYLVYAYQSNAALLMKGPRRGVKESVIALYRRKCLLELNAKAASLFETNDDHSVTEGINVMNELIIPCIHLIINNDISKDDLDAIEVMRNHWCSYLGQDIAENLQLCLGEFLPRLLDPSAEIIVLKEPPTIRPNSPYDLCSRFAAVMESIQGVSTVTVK

| SMILES | IC50 |
| --- | --- |
| Fc1cc(F)c2[nH]cc(-c3nnnn3-c3ccc4ccccc4c3)c2c1 | 22 µM |
| O=C(NC1CCCC1)C1CC(=O)N(c2cccc(-c3noc(-c4cccs4)n3)c2)C1 (stereo not given) | 35.9 µM |
| Cn1ncc2c(=O)n(Cc3cccc(Cl)c3)cnc21 | 12.9 µM |
| Cc1cnc(CN2CCCC(c3ccc4cn[nH]c4n3)C2)cn1 (stereo not given) | > 50 µM (inactive) |
| O=C(COc1ccc2ccccc2c1)Nc1cccc2ccccc12 | 22.4 µM |
| COc1ccccc1C(=O)NCC(c1ccc2c(c1)CCCN2C)N1CCCC1 (stereo not given) | > 50 µM (inactive) |
| O=C(Cn1c(=O)n(Cc2ccc(F)cc2)c(=O)c2sccc21)Nc1cccc(Cl)c1 | 11.4 µM |
| Cc1ccc(-n2nnc(C(=O)NC3CCCCC3)c2N)cc1 | 27.2 µM |
| CCC(CC)n1[nH]c(=O)c2c1NC(=O)CSC2c1ccc2c(c1)OCO2 (stereo not given) | 18.6 µM |
| Fc1ccc(Cc2nc(-c3ccc4nncn4c3)no2)cc1 | 15.1 µM |
| Cc1ccc2[nH]c(=O)c(CN(Cc3cccnc3)C(=O)c3cccc(Cl)c3)cc2c1 | > 50 µM (inactive) |
| O=c1c(Nc2cccc(F)c2)nc2ccncc2n1Cc1ccccc1 | 26 µM |
| COc1c(O)c(O)c2c(=O)cc(-c3ccc(O)cc3)oc2c1OC | 27.2 µM |
| COC(=O)c1c(C)[nH]c(C(=O)C(C)OC(=O)CCC2CCCC2)c1C (stereo not given) | 1.47 µM |
| O=S(=O)(c1cccc2cccnc12)N(CCc1ccccc1)C1CCN(CCc2ccc(Cl)cc2)CC1 | > 50 µM (inactive) |
| Cc1ccccc1N1C(=O)/C(=C\c2cccn2C)c2ccccc2C1=O | > 50 µM (inactive) |
| CC1CC[C@]2(NC1)O[C@H]1C[C@H]3[C@@H]4CC[C@H]5C[C@@H](O[C@@H]6O[C@H](CO)[C@H](O[C@@H]7O[C@H](CO)[C@@H](O)[C@H](O[C@@H]8OC[C@@H](O)[C@H](O)[C@H]8O)[C@H]7O[C@@H]7O[C@H](CO)[C@@H](O)[C@H](O)[C@H]7O)[C@H](O)[C@H]6O)CC[C@]5(C)[C@H]4CC[C@]3(C)[C@H]1[C@@H]2C (stereo not given in full) | 30.5 µM |
| O=C(NCc1cccnc1)c1cnn2c(C(F)(F)F)cc(-c3ccccc3)nc12 | > 50 µM (inactive) |
| Cc1ccc([N+](=O)[O-])cc1S(=O)(=O)Nc1cc2sc(=O)oc2c2ccccc12 | 13.6 µM |
| O=C(CSc1nnnn1-c1ccccc1)Nc1ccccc1 | 39.8 µM |
| CCOC(=O)c1ccc(NC(=O)COc2cccc3c2CCN(CC)C3=O)cc1 | 5.4 µM |
| COc1ccc(-c2cc(C(C)=O)c(C)n2CCC(=O)Nc2ccc(OC)cc2OC)cc1 | 43.1 µM |
| COc1ccc(NC(=O)Cn2cc(C(=O)c3ccc(F)cc3)c(=O)c3cc(C)ccc32)cc1 | 19.7 µM |
| Cc1cc(C(=O)Nc2ccc3nc(N4CCN(c5ncccn5)CC4)cc(C)c3c2)ccc1[N+](=O)[O-] | 14.2 µM |
| Cc1cc(=O)n(CC(=O)Nc2ccccc2C)c(Nc2ccc(F)cc2)n1 | 19.5 µM |

| SMILES | IC50 |
| --- | --- |
| O=C(CCSc1ccc(Cl)cc1)c1cccs1 | 19.4 µM |
| COc1ccccc1CNC(=O)Nc1cccc2ccccc12 | 42.4 µM |
| O=C(O)c1nccnc1C(=O)N1CCc2ccccc2C1 | > 50 µM (inactive) |
| Cc1ccc2nc(NC(=O)CSc3nnc(-c4ccncc4)n3C3CC3)sc2c1 | 4.17 µM |
| O=C1N[C@@H](Cc2ccccc2)C(=O)N2[C@H]3Nc4ccccc4[C@@]3([C@]34C[C@H]5C(=O)N[C@@H](Cc6ccccc6)C(=O)N5[C@H]3Nc3ccccc34)C[C@@H]12 | 29.4 µM |
| CC(OC(=O)c1c2c(nc3ccccc13)CCCCC2)C(=O)Nc1ccc2ccccc2c1 (stereo not given) | 5.1 µM |
| Cc1ccc(/C=C/C(=O)Nc2ccc3c(c2)OCCO3)cc1 | 3.76 µM |
| CC(C)(C)C(=O)Nc1ccc(SCc2nnc(-c3ccccc3)o2)cc1 | 21.8 µM |
| Cn1c2ccccc2c2ncn(Cc3ccc(F)cc3)c(=O)c21 | 6.71 µM |
| CN(Cc1ccccc1)S(=O)(=O)c1ccc2[nH]cc(C(=O)NCc3cccs3)c(=O)c2c1 | 1.52 µM |
| Cc1noc(NS(=O)(=O)c2ccc(NC(=O)CSc3ccc4ccccc4c3)cc2)c1C | > 50 µM (inactive) |
| O=C(NCc1ccc2c(c1)OCO2)c1nn(C23CC4CC(CC(C4)C2)C3)cc1[N+](=O)[O-] | > 50 µM (inactive) |
| CN(C)C1CCN(C(=O)c2cc(-c3ccn(-c4ccccc4)n3)n3ccccc23)CC1 | > 50 µM (inactive) |
| COc1ccc(S(=O)(=O)N2CCC3(CC2)OC(=O)Nc2ccccc23)cc1 | 43.4 µM |
| O=C(Cn1cnc2c(oc3ccccc32)c1=O)NCc1ccccc1Cl | 22.2 µM |
| COC(=O)c1cc(C#N)c(NCc2ccccc2)nc1C | 45.2 µM |
| Cc1ccc2c(c1)c(=O)c(C(=O)c1ccc(F)cc1)cn2CC(=O)Nc1ccc2c(c1)OCCO2 | 35.9 µM |
| NC(=O)c1nnn(-c2ccc(NC(=O)c3ccc(F)c(F)c3)cc2)n1 | 11.2 µM |
| N#C/C(=C/c1sc(N2CCOCC2)nc1-c1ccccc1)c1ccccn1 | > 50 µM (inactive) |
| COc1cccc(N2C(=O)N(CC(=O)NCc3ccc(Cl)cc3)c3ccccc3S2(=O)=O)c1 | 19.1 µM |
| Cc1cccc(NC(=O)CSc2ncnc3c2sc2nc(CC(C)C)c4c(c23)CCC4)c1 | 6.42 µM |
| COc1cccc(-n2nnc(C(=O)Nc3ccc(C)c(C)c3)c2C)c1 | 8.7 µM |
| O=C(NC(Cc1ccccc1)c1nc2ccccc2[nH]1)C1CC1 (stereo not given) | > 50 µM (inactive) |
| Cc1ccc2c(c1)c(=O)c(C(=O)c1ccccc1)cn2CC(=O)Nc1ccc2c(c1)OCCO2 | 4.21 µM |
| Cc1cc(-c2cnc(N(C)C)nc2-c2ccc(CNC(=O)Cc3ccc(F)cc3)cc2)on1 | 28.7 µM |

| SMILES | IC50 |
| --- | --- |
| COc1ccc(OC)c2c(C)cc(N3CCN(S(=O)(=O)c4ccc5c(c4)CCCN5S(C)(=O)=O)CC3)nc12 | 17.9 µM |
| COC(=O)COc1ccc(/C=N/NC(=O)c2ccc(CN3CCc4ccccc4C3)cc2)cc1 | 11.1 µM |
| O=S(=O)(c1cccc(F)c1)N1CCc2nc3ccccc3n2CC1 | 10.8 µM |
| CC(C)(C)c1cc(CCC(=O)Nc2c3c(nc4c2CCC4)CCCC3)cc(C(C)(C)C)c1O | > 50 µM (inactive) |
| Cc1nc(C(=O)Nc2cccc(Cl)c2Cl)nn1-c1cc(Cl)cc(Cl)c1 | 0.163 µM |
| COC(=O)c1ccc(C(=O)Nc2cc3ccccc3cc2NC(=O)c2ccc(C(=O)OC)cc2)cc1 | 2.78 µM |
| NS(=O)(=O)c1cccc(NC(=O)CN2CCCc3ccccc32)c1 | > 50 µM (inactive) |
| COc1ccc2nc(NC(=O)C(CC(C)C)NS(=O)(=O)c3ccc4c(c3)CCN4C(C)=O)sc2c1 (stereo not given) | 26 µM |
| CCn1cc(NC(=O)CN2CCC3(CC=CCOC3)CC2)c(C)n1 | > 50 µM (inactive) |
| O=c1c2ccccc2ncn1C1CCN(S(=O)(=O)c2ccccc2F)CC1 | 30.6 µM |
| O=C(NCC(c1cccnc1)N1CCc2ccccc2C1)C(=O)Nc1ccc2c(c1)OCO2 (stereo not given) | 28.8 µM |
| COc1ccc(CC(NC(C)=O)C(=O)NC2CCN(c3c(Cc4ccccc4)c(C)nc4ncnn34)CC2)cc1OC (stereo not given) | > 50 µM (inactive) |
| COc1ccc(CCNC(=O)CSc2cn(CCNC(=O)c3ccc(F)cc3)c3ccccc23)cc1OC | 28.1 µM |
| Cc1nn(C)c2c1[C@@H](c1ccc(F)cc1)[C@H](NC(=O)c1ccccc1)C(=O)N2 | 16 µM |
| CCc1ccc(NC(=O)COC(=O)c2n[nH]c3ccccc23)cc1 | 12 µM |
| Cc1cc(C)cc(-n2cnc3cc(C(=O)NCCC4=CCCCC4)ccc32)c1 | 2.01 µM |
| COc1cccc(NC(=O)Cc2sc(Nc3cc(C)cc(C)c3)nc2O)c1 | 18.1 µM |
| O=C(c1ccc(Cl)cc1)c1c[nH]cc1-c1c(F)cccc1Cl | 33.1 µM |
| CCCCc1nc2sc3c(NCCN4CCOCC4)ncnc3c2c2c1CCC2 | 0.549 µM |
| COc1ccccc1-c1ccc(CN2[C@@H](c3ccccc3)C[C@@H]3NC(=O)CCC[C@H]32)cc1 | > 50 µM (inactive) |
| O=C(c1cc2ccccc2o1)N1CC=C(c2ccccc2)CC1 | > 50 µM (inactive) |
| COc1ccccc1NS(=O)(=O)c1cccc(NC(=O)CCc2nc3ccccc3s2)c1 | 13.3 µM |
| CN1CCN(c2ncnc3c2oc2ccc(Cl)cc23)CC1 | > 50 µM (inactive) |
| O=C(Nc1ccccc1-c1nc2ccccc2[nH]1)c1sc2ccccc2c1Cl | 2.04 µM |
| CCc1cc2cc3c(cc2nc1SCC(=O)Nc1cccc(C(C)=O)c1)OCO3 | 2.58 µM |

| SMILES | IC50 |
| --- | --- |
| Cc1nc(-c2ccc(C(=O)NCc3ccc(F)cc3)cc2)cs1 | 36.7 µM |
| COc1ccc(NC(=O)c2nnn(-c3ccccc3)c2C)cc1OC | 11.6 µM |
| COc1ccccc1Nc1ncc(C(=O)NCCc2ccc(Cl)cc2)c2ccccc12 | 4.31 µM |
| Cc1ccc(OC(=O)c2cn(-c3ccccc3)nc2-c2cccnc2)cc1 | > 50 µM (inactive) |
| CCc1noc(-c2ccc(OCC(=O)Nc3ccc(C)cc3C)cc2)n1 | 33.7 µM |
| O=C(Cn1cccc1-c1nc(-c2ccccc2)cs1)N1CCOCC1 | 18.3 µM |
| Cc1ccc(C(C)C)cc1OCCOCCN1CCNCC1 | 19.8 µM |
| CCOc1ccc(N2C(=O)c3ccccc3C2C(=O)NCc2ccccc2OC)cc1 (stereo not given) | 29.8 µM |
| CC(=O)N1CCOc2cc(S(=O)(=O)N3CCCC3c3cc(C)no3)ccc21 (stereo not given) | 22.9 µM |
| O=C(Nc1ccc(F)cc1F)NC1CCN(c2ccccc2)C1=O (stereo not given) | 21.7 µM |
| O=C(Nc1ccccc1Br)c1ccn(COc2ccccc2F)n1 | 18 µM |
| Cc1ccc(NC(=O)c2cnc3c(c2)c(=O)n(C)c(=O)n3C)cc1 | 2.07 µM |
| COc1ccc(-c2nc(Cn3nnc(C(=O)Nc4ccc(C)cc4C)c3N)c(C)o2)cc1 | 42.9 µM |
| COc1ccc(NC(=O)c2cc(-c3cccnc3)n[nH]2)cc1Cl | 1.27 µM |
| CSc1nc(SCC(N)=O)c2c3c(sc2n1)COC(C)(C)C3 | 27.3 µM |
| Oc1ccc(Br)cc1CNc1ccc(F)cc1 | 18.3 µM |
| CC(C)N1CC2CN(Cc3ccc(Cl)cc3)CCN2Cc2ccccc21 (stereo not given) | > 50 µM (inactive) |
| O=C(OC1CSc2nc3ccccc3n2C1)c1ccc([N+](=O)[O-])o1 (stereo not given) | 33.2 µM |
| NC(=O)c1nc(-c2ccccn2)nc2c1[nH]c(=O)n2-c1ccc2c(c1)OCO2 | 6.72 µM |
| Cc1nn(CC(=O)Nc2ccc(Br)c3cccnc23)c(=O)c2ccccc12 | 21.5 µM |
| CCOc1ccccc1C(=O)Oc1ccc2c(C)cc(=O)oc2c1 | 23.2 µM |
| COc1ccc(NS(=O)(=O)c2ccc(NC(=O)Nc3ccc(Cl)cc3)cc2)cc1 | 24.9 µM |
| O=C(COc1cccc2ccc(N3CCC(Cc4ccccc4)CC3)nc12)NCc1ccc(F)cc1 | 20.7 µM |
| COCCn1c(=O)[nH]c2cc(C(=O)NCCNc3ccc([N+](=O)[O-])cc3C#N)ccc2c1=O | 2.06 µM |
| O=C(CCn1c(=O)c2sccc2n(CC(=O)OCc2ccccc2)c1=O)NCc1ccc2c(c1)OCO2 | 18 µM |
